Results on 17 compounds are retold here after ChEMBL document CHEMBL1795319, “Design, synthesis and antifungal evaluation of 1-(2-(2,4-difluorophenyl)-2-hydroxy-3-(1H-1,2,4-triazol-1-yl)propyl)-1H-1,2,4-triazol-5(4H)-one” (2011).

What all share (assay type): functional
One assay deals with Candida tropicalis. As to the kind of experiment: Antifungal activity against Candida tropicalis by micro-broth dilution method. (Dilution methods test growth across graded concentrations, often in twofold steps.)
Assay [1] concerns Candida albicans. Description: Antifungal activity against Candida albicans Y0109 after 24 hrs by micro-broth dilution method. The conditions noted are these: Y0109, 24 h.
The test system of the next assay is Cryptococcus neoformans. Description: Antifungal activity against Cryptococcus neoformans BLS108 after 72 hrs by micro-broth dilution method. The conditions noted are these: BLS108, 72 h.
In another assay the test system is Candida parapsilosis. Description: Antifungal activity against Candida parapsilosis by micro-broth dilution method. Conditions: Lodderomyces parapsilosis.
The test system of the next assay is Trichophyton rubrum. Description: Antifungal activity against Trichophyton rubrum by micro-broth dilution method.
A further assay deals with Aspergillus fumigatus. Description: Antifungal activity against Aspergillus fumigatus by broth microdilution method.
The next assay concerns Kluyveromyces marxianus. Description: Antifungal activity against Candida kefyr by micro-broth dilution method.
Assay [2] has as its system Candida albicans. Description: Antifungal activity against Candida albicans SC5314 after 24 hrs by micro-broth dilution method. Conditions: SC5314, 24 h.

SMILES strings stand for the structures. In brackets after ≈: the same amount, converted by molar mass.

In general, MIC80 refers to the lowest concentration that inhibits either 80% of growth or 80% of the strains tested, depending on the study. The low end stands for greater potency, the high end for weaker potency. For `O=c1n(-c2ccc(Br)cc2)cnn1CC(O)(Cn1cncn1)c1ccc(F)cc1F` (racemic), the MIC80 was 0.0625 µg/mL (≈ 0.131 µM) against Candida tropicalis; 0.156 µg/mL (≈ 0.327 µM) in the assay with Candida albicans [1]; 16 µg/mL (≈ 33.5 µM) in the assay with Cryptococcus neoformans; 1 µg/mL (≈ 2.1 µM) against Candida parapsilosis; 16 µg/mL (≈ 33.5 µM) in the assay on Trichophyton rubrum; > 64 µg/mL in the assay with Aspergillus fumigatus. Also, the MIC80 worked out at 0.0156 µg/mL (≈ 0.0327 µM) against Kluyveromyces marxianus and 1 µg/mL (≈ 2.1 µM) in the assay with Candida albicans [2].
`C[C@@H](c1ncncc1F)[C@](O)(Cn1cncn1)c1ccc(F)cc1F` [VORICONAZOLE]: the MIC80 against Candida tropicalis was determined as 0.0039 µg/mL (≈ 0.0112 µM); in the assay on Candida albicans [1], 0.0039 µg/mL (≈ 0.0112 µM); with Cryptococcus neoformans it was 0.0039 µg/mL (≈ 0.0112 µM); with Candida parapsilosis it was 0.0039 µg/mL (≈ 0.0112 µM); with Trichophyton rubrum, 0.0156 µg/mL (≈ 0.0447 µM); in the assay on Aspergillus fumigatus, 0.0039 µg/mL (≈ 0.0112 µM). Moreover, the MIC80 against Kluyveromyces marxianus and in the assay on Candida albicans [2] was 0.0039 µg/mL (≈ 0.0112 µM) in each case.
For `O=c1n(-c2nccs2)cnn1CC(O)(Cn1cncn1)c1ccc(F)cc1F` (racemic), the MIC80 is 1 µg/mL (≈ 2.47 µM) against Candida tropicalis; 1 µg/mL (≈ 2.47 µM) against Candida albicans [1]; 64 µg/mL (≈ 158 µM) in the assay on Cryptococcus neoformans; 0.25 µg/mL (≈ 0.617 µM) with Candida parapsilosis; 16 µg/mL (≈ 39.5 µM) against Trichophyton rubrum; > 64 µg/mL against Aspergillus fumigatus. In addition, the MIC80 with Kluyveromyces marxianus stood at 1 µg/mL (≈ 2.47 µM); in the assay on Candida albicans [2], 0.25 µg/mL (≈ 0.617 µM).
Consider `O=c1n(-c2ccc(F)cc2)cnn1CC(O)(Cn1cncn1)c1ccc(F)cc1F` (racemic), for which the MIC80 is 0.25 µg/mL (≈ 0.6 µM) against Candida tropicalis; 1 µg/mL (≈ 2.4 µM) against Candida albicans [1]; > 64 µg/mL in the assay with Cryptococcus neoformans; 4 µg/mL (≈ 9.61 µM) against Candida parapsilosis; 64 µg/mL (≈ 154 µM) with Trichophyton rubrum; > 64 µg/mL against Aspergillus fumigatus. The MIC80 in the assay on Kluyveromyces marxianus came out at 0.25 µg/mL (≈ 0.6 µM); against Candida albicans [2], 1 µg/mL (≈ 2.4 µM).
On to `O=c1n(-c2ccccc2)cnn1CC(O)(Cn1cncn1)c1ccc(F)cc1F` (racemic), for which the MIC80 was 0.25 µg/mL (≈ 0.628 µM) in the assay on Candida tropicalis; 0.25 µg/mL (≈ 0.628 µM) against Candida albicans [1]; 64 µg/mL (≈ 161 µM) with Cryptococcus neoformans; 4 µg/mL (≈ 10 µM) against Candida parapsilosis; 16 µg/mL (≈ 40.2 µM) against Trichophyton rubrum; > 64 µg/mL in the assay on Aspergillus fumigatus. The values for the MIC80 against Kluyveromyces marxianus and against Candida albicans [2] were 0.25 µg/mL (≈ 0.628 µM) and 1 µg/mL (≈ 2.51 µM), respectively.
Turning to `Cc1ccnc(-n2cnn(CC(O)(Cn3cncn3)c3ccc(F)cc3F)c2=O)c1` (racemic), the MIC80 against Candida tropicalis was 0.00024 µg/mL (≈ 0.000581 µM); in the assay on Candida albicans [1], 0.00024 µg/mL (≈ 0.000581 µM); against Cryptococcus neoformans, 0.00024 µg/mL (≈ 0.000581 µM); with Candida parapsilosis it was 0.00024 µg/mL (≈ 0.000581 µM); against Trichophyton rubrum it was 64 µg/mL (≈ 155 µM); in the assay on Aspergillus fumigatus it was > 64 µg/mL. Besides, the MIC80 in the assay on Kluyveromyces marxianus is 0.0625 µg/mL (≈ 0.151 µM); with Candida albicans [2], 0.00024 µg/mL (≈ 0.000581 µM).
Consider `OC(Cn1cncn1)(Cn1cncn1)c1ccc(F)cc1F` [FLUCONAZOLE], for which the MIC80 with Candida tropicalis is 1 µg/mL (≈ 3.27 µM); in the assay on Candida albicans [1], 0.25 µg/mL (≈ 0.816 µM); against Cryptococcus neoformans, 1 µg/mL (≈ 3.27 µM); in the assay on Candida parapsilosis, 0.25 µg/mL (≈ 0.816 µM); with Trichophyton rubrum, 1 µg/mL (≈ 3.27 µM); in the assay with Aspergillus fumigatus it was > 64 µg/mL. Further, the MIC80 in the assay on Kluyveromyces marxianus stood at 4 µg/mL (≈ 13.1 µM); in the assay on Candida albicans [2] it was 0.25 µg/mL (≈ 0.816 µM).
`CC(=O)Nc1ccc(-n2cnn(CC(O)(Cn3cncn3)c3ccc(F)cc3F)c2=O)cc1` (racemic): the MIC80 against Candida tropicalis was 16 µg/mL (≈ 35.1 µM); with Candida albicans [1], 4 µg/mL (≈ 8.78 µM); against Cryptococcus neoformans, > 64 µg/mL; in the assay on Candida parapsilosis it was 16 µg/mL (≈ 35.1 µM); with Trichophyton rubrum, > 64 µg/mL; against Aspergillus fumigatus, > 64 µg/mL. In addition, the results for the MIC80 against Kluyveromyces marxianus and in the assay with Candida albicans [2] were > 64 µg/mL and 16 µg/mL (≈ 35.1 µM), respectively.
On to `O=C(Nc1ccc(-n2cnn(CC(O)(Cn3cncn3)c3ccc(F)cc3F)c2=O)cc1)c1ccccn1` (racemic), for which the MIC80 is > 64 µg/mL against Candida tropicalis; 4 µg/mL (≈ 7.71 µM) in the assay on Candida albicans [1]; > 64 µg/mL in the assay with Cryptococcus neoformans; 4 µg/mL (≈ 7.71 µM) against Candida parapsilosis; > 64 µg/mL in the assay with Trichophyton rubrum; > 64 µg/mL in the assay with Aspergillus fumigatus. Further, the values for the MIC80 in the assay with Kluyveromyces marxianus and against Candida albicans [2] were 16 µg/mL (≈ 30.9 µM) and 1 µg/mL (≈ 1.93 µM), respectively.
For the compound `Cc1ccc(-n2cnn(CC(O)(Cn3cncn3)c3ccc(F)cc3F)c2=O)cc1` (racemic), the MIC80 in the assay with Candida tropicalis was 0.25 µg/mL (≈ 0.606 µM); against Candida albicans [1], 1 µg/mL (≈ 2.42 µM); in the assay with Cryptococcus neoformans, 64 µg/mL (≈ 155 µM); against Candida parapsilosis it was 4 µg/mL (≈ 9.7 µM); with Trichophyton rubrum it was 64 µg/mL (≈ 155 µM); in the assay on Aspergillus fumigatus it was > 64 µg/mL. Further, the MIC80 against Kluyveromyces marxianus and in the assay on Candida albicans [2] was 0.25 µg/mL (≈ 0.606 µM) each time.
Regarding `Cc1ccc(-n2cnn(CC(O)(Cn3cncn3)c3ccc(F)cc3F)c2=O)nc1` (racemic), the MIC80 was 64 µg/mL (≈ 155 µM) with Candida tropicalis; 4 µg/mL (≈ 9.68 µM) in the assay on Candida albicans [1]; 16 µg/mL (≈ 38.7 µM) with Cryptococcus neoformans; 4 µg/mL (≈ 9.68 µM) in the assay with Candida parapsilosis; 16 µg/mL (≈ 38.7 µM) in the assay with Trichophyton rubrum; > 64 µg/mL against Aspergillus fumigatus. For the same compound, the MIC80 in the assay on Kluyveromyces marxianus and with Candida albicans [2] was 4 µg/mL (≈ 9.68 µM) in each case.
On to `O=c1n(-c2ccc(Cl)c(Cl)c2)cnn1CC(O)(Cn1cncn1)c1ccc(F)cc1F` (racemic), for which the MIC80 is 64 µg/mL (≈ 137 µM) against Candida tropicalis; 16 µg/mL (≈ 34.2 µM) against Candida albicans [1]; 0.25 µg/mL (≈ 0.535 µM) in the assay with Cryptococcus neoformans; 16 µg/mL (≈ 34.2 µM) with Candida parapsilosis; > 64 µg/mL against Trichophyton rubrum; > 64 µg/mL against Aspergillus fumigatus. Moreover, the MIC80 with Kluyveromyces marxianus worked out at 16 µg/mL (≈ 34.2 µM); in the assay with Candida albicans [2], 4 µg/mL (≈ 8.56 µM).
For the compound `COc1ccc(-n2cnn(CC(O)(Cn3cncn3)c3ccc(F)cc3F)c2=O)cc1` (racemic), the MIC80 against Candida tropicalis was 0.0625 µg/mL (≈ 0.146 µM); against Candida albicans [1], 0.0625 µg/mL (≈ 0.146 µM); with Cryptococcus neoformans it was 16 µg/mL (≈ 37.3 µM); in the assay on Candida parapsilosis, 1 µg/mL (≈ 2.33 µM); in the assay with Trichophyton rubrum, 16 µg/mL (≈ 37.3 µM); in the assay with Aspergillus fumigatus, > 64 µg/mL. The MIC80 turned out to be 0.0625 µg/mL (≈ 0.146 µM) in the assay on Kluyveromyces marxianus and 1 µg/mL (≈ 2.33 µM) in the assay with Candida albicans [2].
Take `O=c1n(-c2ccc(Cl)cc2)cnn1CC(O)(Cn1cncn1)c1ccc(F)cc1F` (racemic): the MIC80 against Candida tropicalis was 0.0625 µg/mL (≈ 0.144 µM); in the assay on Candida albicans [1], 0.0625 µg/mL (≈ 0.144 µM); against Cryptococcus neoformans it was 64 µg/mL (≈ 148 µM); in the assay on Candida parapsilosis it was 1 µg/mL (≈ 2.31 µM); against Trichophyton rubrum, 16 µg/mL (≈ 37 µM); against Aspergillus fumigatus, > 64 µg/mL. Further, the results for the MIC80 against Kluyveromyces marxianus and with Candida albicans [2] were 0.0156 µg/mL (≈ 0.036 µM) and 0.0625 µg/mL (≈ 0.144 µM), respectively.
As to `C[C@@H]1[C@H](O)[C@@H](C)/C=C/C=C/C=C/C=C/C=C/C=C/C=C/[C@H](O[C@@H]2O[C@H](C)[C@@H](O)[C@H](N)[C@@H]2O)C[C@@H]2O[C@](O)(C[C@@H](O)C[C@@H](O)[C@H](O)CC[C@@H](O)C[C@@H](O)CC(=O)O[C@H]1C)C[C@H](O)[C@H]2C(=O)O` [AMPHOTERICIN B], the MIC80 against Candida tropicalis came out at 1 µg/mL (≈ 1.08 µM); with Candida albicans [1], 0.25 µg/mL (≈ 0.271 µM); in the assay with Cryptococcus neoformans, 1 µg/mL (≈ 1.08 µM); against Candida parapsilosis, 0.25 µg/mL (≈ 0.271 µM); against Trichophyton rubrum it was 4 µg/mL (≈ 4.33 µM); in the assay with Aspergillus fumigatus it was 1 µg/mL (≈ 1.08 µM). The MIC80 in the assay on Kluyveromyces marxianus and in the assay with Candida albicans [2] was 0.25 µg/mL (≈ 0.271 µM) each time.
On to `CCC(C)n1ncn(-c2ccc(N3CCN(c4ccc(OCC5COC(Cn6cncn6)(c6ccc(Cl)cc6Cl)O5)cc4)CC3)cc2)c1=O` (stereo unspecified) [ITRACONAZOLE], for which the MIC80 in the assay with Candida tropicalis, against Candida albicans [1], in the assay with Cryptococcus neoformans, in the assay with Candida parapsilosis, with Trichophyton rubrum and with Aspergillus fumigatus was 0.0625 µg/mL (≈ 0.0886 µM) each time. The MIC80 with Kluyveromyces marxianus and in the assay with Candida albicans [2] was 0.0625 µg/mL (≈ 0.0886 µM) each time.
As for `CCCCC(=O)Nc1ccc(-n2cnn(CC(O)(Cn3cncn3)c3ccc(F)cc3F)c2=O)cc1` (racemic), the MIC80 in the assay with Candida tropicalis was 0.0625 µg/mL (≈ 0.126 µM); against Candida albicans [1] it was 0.00024 µg/mL (≈ 0.000482 µM); against Cryptococcus neoformans it was 0.0625 µg/mL (≈ 0.126 µM); in the assay with Candida parapsilosis, 0.00024 µg/mL (≈ 0.000482 µM); in the assay with Trichophyton rubrum it was > 64 µg/mL; against Aspergillus fumigatus it was > 64 µg/mL. The MIC80 in the assay on Kluyveromyces marxianus came to 64 µg/mL (≈ 129 µM); in the assay on Candida albicans [2], 0.00097 µg/mL (≈ 0.00195 µM).
